From ChEMBL document CHEMBL1148343, “Fragment-based drug discovery” (J Med Chem, 2004)

Legend:
Nucleic Acid = test: (§1) Maximal non-effective concentration against bacterial DNA gyrase; type: nucleic-acid assay
[1] = target: Matrix metalloproteinase-9 (Homo sapiens) (UniProt P14780); test: Inhibition of gelatinase B, matrix metalloprotease-9 (MMP-9) at 5000 uM
[2] = target: DNA topoisomerase 2-beta (Homo sapiens) (UniProt Q02880); test: as §1
Sequence of DNA topoisomerase 2-beta (Homo sapiens) (Q02880 whole entry): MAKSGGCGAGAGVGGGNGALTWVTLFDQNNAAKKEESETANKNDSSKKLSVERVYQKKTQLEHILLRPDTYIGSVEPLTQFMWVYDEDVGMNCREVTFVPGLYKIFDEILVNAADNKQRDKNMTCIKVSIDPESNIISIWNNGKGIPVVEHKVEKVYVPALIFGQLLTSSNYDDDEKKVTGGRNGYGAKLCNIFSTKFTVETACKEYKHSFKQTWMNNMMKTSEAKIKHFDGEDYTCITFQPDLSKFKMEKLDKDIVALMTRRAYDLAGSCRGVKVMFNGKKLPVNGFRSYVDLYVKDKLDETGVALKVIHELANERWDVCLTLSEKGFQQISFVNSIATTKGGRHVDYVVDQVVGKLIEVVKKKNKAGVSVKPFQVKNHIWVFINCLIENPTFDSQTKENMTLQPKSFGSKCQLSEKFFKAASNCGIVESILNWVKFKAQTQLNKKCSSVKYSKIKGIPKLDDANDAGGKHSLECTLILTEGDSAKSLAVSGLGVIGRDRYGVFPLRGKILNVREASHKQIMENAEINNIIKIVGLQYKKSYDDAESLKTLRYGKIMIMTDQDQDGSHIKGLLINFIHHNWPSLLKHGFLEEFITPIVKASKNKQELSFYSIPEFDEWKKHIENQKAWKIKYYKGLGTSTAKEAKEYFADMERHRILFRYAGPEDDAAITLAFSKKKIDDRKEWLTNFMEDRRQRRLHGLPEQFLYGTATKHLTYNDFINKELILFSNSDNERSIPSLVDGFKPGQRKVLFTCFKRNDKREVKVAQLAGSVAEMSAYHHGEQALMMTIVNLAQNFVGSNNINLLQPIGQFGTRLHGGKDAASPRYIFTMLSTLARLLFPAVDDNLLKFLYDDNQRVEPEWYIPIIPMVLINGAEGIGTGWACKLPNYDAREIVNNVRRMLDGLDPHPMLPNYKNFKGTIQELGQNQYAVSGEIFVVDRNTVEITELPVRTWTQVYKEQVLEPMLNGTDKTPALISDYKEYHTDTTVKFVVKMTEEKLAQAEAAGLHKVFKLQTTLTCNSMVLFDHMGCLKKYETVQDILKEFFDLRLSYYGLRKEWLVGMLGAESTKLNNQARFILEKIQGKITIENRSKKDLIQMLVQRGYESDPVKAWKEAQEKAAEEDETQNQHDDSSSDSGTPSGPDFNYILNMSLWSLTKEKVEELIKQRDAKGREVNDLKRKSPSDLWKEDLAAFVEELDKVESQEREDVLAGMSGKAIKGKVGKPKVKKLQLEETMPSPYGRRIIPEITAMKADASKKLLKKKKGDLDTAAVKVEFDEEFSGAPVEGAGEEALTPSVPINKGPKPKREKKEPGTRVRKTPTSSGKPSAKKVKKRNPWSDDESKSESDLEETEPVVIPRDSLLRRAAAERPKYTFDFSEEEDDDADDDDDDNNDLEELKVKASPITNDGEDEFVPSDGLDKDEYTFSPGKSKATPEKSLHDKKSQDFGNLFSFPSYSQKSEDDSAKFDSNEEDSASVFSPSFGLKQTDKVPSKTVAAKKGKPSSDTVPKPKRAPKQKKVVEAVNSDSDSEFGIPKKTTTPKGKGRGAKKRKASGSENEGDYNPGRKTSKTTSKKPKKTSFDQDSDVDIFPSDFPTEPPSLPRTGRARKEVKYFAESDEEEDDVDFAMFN

Sequence of Matrix metalloproteinase-9 (Homo sapiens) (P14780 whole entry): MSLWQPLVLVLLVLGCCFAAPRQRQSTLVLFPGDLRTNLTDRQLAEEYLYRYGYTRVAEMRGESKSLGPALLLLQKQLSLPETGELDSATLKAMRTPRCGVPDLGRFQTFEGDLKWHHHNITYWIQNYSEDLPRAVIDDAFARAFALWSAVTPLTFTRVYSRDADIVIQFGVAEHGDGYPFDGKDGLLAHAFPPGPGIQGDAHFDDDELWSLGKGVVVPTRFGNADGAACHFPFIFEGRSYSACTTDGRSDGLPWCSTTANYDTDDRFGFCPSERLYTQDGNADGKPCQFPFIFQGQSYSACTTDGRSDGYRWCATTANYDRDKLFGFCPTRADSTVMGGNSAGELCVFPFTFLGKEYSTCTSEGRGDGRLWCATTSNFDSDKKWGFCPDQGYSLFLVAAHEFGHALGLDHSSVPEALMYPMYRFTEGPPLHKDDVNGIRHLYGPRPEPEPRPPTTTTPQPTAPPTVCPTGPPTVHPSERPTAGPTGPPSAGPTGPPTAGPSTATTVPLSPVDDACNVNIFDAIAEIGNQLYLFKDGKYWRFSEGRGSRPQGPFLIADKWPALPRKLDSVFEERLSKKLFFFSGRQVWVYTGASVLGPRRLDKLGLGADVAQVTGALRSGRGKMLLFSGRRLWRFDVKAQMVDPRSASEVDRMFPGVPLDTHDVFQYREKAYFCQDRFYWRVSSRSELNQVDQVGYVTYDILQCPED

An MNEC (Nucleic Acid) of 25 µM was found for `Cc1cc(=O)oc2cc(SCc3n[nH]c4ccccc34)ccc12` in this work.

An inhibition [1] of 65% was found for `NCc1nc2ccccc2[nH]1` in this work.

An MNEC (Nucleic Acid) of 41 µM was found for `c1ccc(-c2[nH]nc3ccccc23)cc1` in this work.

An MNEC [2] of 0.062 µM was found for `Cc1cc(=O)oc2cc(SCc3n[nH]c4cccc(OCc5ccc(C(C)(C)C)cc5)c34)ccc12` in this work.
